What was measured:
Format in all cases: in vivo
[1] = tested on: redroot pigweed (Amaranthus retroflexus); test: Test G Pre-Emergence Protocol; details: Amaranthus retroflexus, pre-emergence, 312 h, evaluated after 13 days; for pest or weed control at 15.625 g/ha: 15.625 g ai/ha; for pest or weed control at 15.625 g/ha / pest or weed control at 250 g/ha: read-out: Pigweed, Redroot damage rating (100=total damage to plant; 0=no damage to plant); for pest or weed control at 62.5 g/ha: 62.5 g ai/ha, 100=total damage to plant, 0=no damage to plant, read-out: plant damage rating, Pigweed, Redroot; for pest or weed control at 250 g/ha: 250 g ai/ha
Outline: (§1)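 Glasshouse pre-emergence test: soil-sown seeds, sprayed after 1 d at 15.625, 62.5 or 250 g/ha. Conditions 24/16° C day/night, 14 h light, 65% humidity, watering twice daily. Rating 13 d post-spray (100 = total damage).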

[2] = tested on: barnyardgrass (Echinochloa crus-galli); test: Test G Pre-Emergence Protocol; details: Echinochloa crus-galli, pre-emergence, 312 h, evaluated after 13 days; for pest or weed control at 15.625 g/ha: 15.625 g ai/ha, read-out: Barnyard grass damage rating (100=total damage to plant; 0=no damage to plant); for pest or weed control at 62.5 g/ha: 62.5 g ai/ha, 100=total damage to plant, 0=no damage to plant, read-out: plant damage rating, Barnyardgrass; for pest or weed control at 250 g/ha: 250 g ai/ha, read-out: Barnyardgrass damage rating (100=total damage to plant; 0=no damage to plant)
Outline: as §1

[3] = tested on: giant foxtail (Setaria faberi); test: Test G Pre-Emergence Protocol; details: Setaria faberi, pre-emergence, 312 h, evaluated after 13 days; for pest or weed control at 15.625 g/ha: 15.625 g ai/ha; for pest or weed control at 15.625 g/ha / pest or weed control at 250 g/ha: read-out: Foxtail, Giant damage rating (100=total damage to plant; 0=no damage to plant); for pest or weed control at 62.5 g/ha: 62.5 g ai/ha, 100=total damage to plant, 0=no damage to plant, read-out: plant damage rating, Foxtail, Giant; for pest or weed control at 250 g/ha: 250 g ai/ha
Outline: as §1

[4] = tested on: velvetleaf (Abutilon theophrasti); test: Test G Pre-Emergence Protocol; details: Abutilon theophrasti, pre-emergence, 312 h, evaluated after 13 days; for pest or weed control at 15.625 g/ha: 15.625 g ai/ha; for pest or weed control at 15.625 g/ha / pest or weed control at 250 g/ha: read-out: Velvetleaf damage rating (100=total damage to plant; 0=no damage to plant); for pest or weed control at 62.5 g/ha: 62.5 g ai/ha, 100=total damage to plant, 0=no damage to plant, read-out: plant damage rating, Velvetleaf; for pest or weed control at 250 g/ha: 250 g ai/ha
Outline: as §1

corn (Zea mays) [5] = test: Test G Pre-Emergence Protocol; details: Zea mays, pre-emergence, 312 h, evaluated after 13 days; for plant injury at 15.625 g/ha: 15.625 g ai/ha; for plant injury at 15.625 g/ha / plant injury at 250 g/ha: read-out: Corn damage rating (100=total damage to plant; 0=no damage to plant); for plant injury at 62.5 g/ha: 62.5 g ai/ha, 100=total damage to plant, 0=no damage to plant, read-out: plant damage rating, Corn; for plant injury at 250 g/ha: 250 g ai/ha
Outline: as §1

[6] = tested on: ivy-leaved morning glory (Ipomoea hederacea); test: Test G Pre-Emergence Protocol; details: Ipomoea, pre-emergence, 312 h, evaluated after 13 days; for pest or weed control at 15.625 g/ha: 15.625 g ai/ha, read-out: Morning-glory, Ivy-leaved damage rating (100=total damage to plant; 0=no damage to plant); for pest or weed control at 62.5 g/ha: 62.5 g ai/ha, 100=total damage to plant, 0=no damage to plant, read-out: plant damage rating, Morningglory, Ivy-leaved; for pest or weed control at 250 g/ha: 250 g ai/ha, read-out: Morningglory, Ivy-leaved damage rating (100=total damage to plant; 0=no damage to plant)
Outline: as §1

[7] = tested on: redroot pigweed (Amaranthus retroflexus); test: Test G Post-Emergence Protocol; details: Amaranthus retroflexus, post-emergence, 312 h; for pest or weed control at 15.625 g/ha: 15.625 g ai/ha, evaluated after 13 days (100=total damage to plant; 0=no damage to plant), read-out: Pigweed, Redroot damage rating; for pest or weed control at 62.5 g/ha: 62.5 g ai/ha, read-out: Pigweed, Redroot damage rating (100=total damage to plant; 0=no damage to plant); for pest or weed control at 62.5 g/ha / pest or weed control at 250 g/ha: evaluated after 13 days; for pest or weed control at 250 g/ha: 250 g ai/ha, read-out: damage to plant, Pigweed, Redroot (100=total damage to plant; 0=no damage to plant)
Outline: (§2)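 Eight days post-sowing, plants received a spray of test compound (acetone/water 50:50, 0.5% Tween 20) at 15.625, 62.5 or 250 g/ha. Glasshouse regime thereafter: 24/16 °C, 14 h light, 65% humidity. Assessment after 13 days on a 0–100 damage scale.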

[8] = tested on: barnyardgrass (Echinochloa crus-galli); test: Test G Post-Emergence Protocol; details: Echinochloa crus-galli, post-emergence, 312 h; for pest or weed control at 15.625 g/ha: 15.625 g ai/ha, evaluated after 13 days (100=total damage to plant; 0=no damage to plant), read-out: Barnyardgrass damage rating; for pest or weed control at 62.5 g/ha: 62.5 g ai/ha, read-out: Barnyardgrass damage rating (100=total damage to plant; 0=no damage to plant); for pest or weed control at 62.5 g/ha / pest or weed control at 250 g/ha: evaluated after 13 days; for pest or weed control at 250 g/ha: 250 g ai/ha, read-out: damage to plant, Barnyardgrass (100=total damage to plant; 0=no damage to plant)
Outline: as §2

[9] = tested on: giant foxtail (Setaria faberi); test: Test G Post-Emergence Protocol; details: Setaria faberi, post-emergence, 312 h; for pest or weed control at 15.625 g/ha: 15.625 g ai/ha, evaluated after 13 days (100=total damage to plant; 0=no damage to plant), read-out: Foxtail, Giant damage rating; for pest or weed control at 62.5 g/ha: 62.5 g ai/ha, read-out: Foxtail, Giant damage rating (100=total damage to plant; 0=no damage to plant); for pest or weed control at 62.5 g/ha / pest or weed control at 250 g/ha: evaluated after 13 days; for pest or weed control at 250 g/ha: 250 g ai/ha, read-out: damage to plant, Foxtail, Giant (100=total damage to plant; 0=no damage to plant)
Outline: as §2

[10] = tested on: velvetleaf (Abutilon theophrasti); test: Test G Post-Emergence Protocol; details: Abutilon theophrasti, post-emergence, 312 h; for pest or weed control at 15.625 g/ha: 15.625 g ai/ha, evaluated after 13 days (100=total damage to plant; 0=no damage to plant), read-out: Velvetleaf damage rating; for pest or weed control at 62.5 g/ha: 62.5 g ai/ha, read-out: Velvetleaf damage rating (100=total damage to plant; 0=no damage to plant); for pest or weed control at 62.5 g/ha / pest or weed control at 250 g/ha: evaluated after 13 days; for pest or weed control at 250 g/ha: 250 g ai/ha, read-out: damage to plant, Velvetleaf (100=total damage to plant; 0=no damage to plant)
Outline: as §2

corn (Zea mays) [11] = test: Test G Post-Emergence Protocol; details: Zea mays, post-emergence, 312 h; for plant injury at 15.625 g/ha: 15.625 g ai/ha, evaluated after 13 days (100=total damage to plant; 0=no damage to plant), read-out: Corn damage rating; for plant injury at 62.5 g/ha: 62.5 g ai/ha, read-out: Corn damage rating (100=total damage to plant; 0=no damage to plant); for plant injury at 62.5 g/ha / plant injury at 250 g/ha: evaluated after 13 days; for plant injury at 250 g/ha: 250 g ai/ha, read-out: damage to plant, Corn (100=total damage to plant; 0=no damage to plant)
Outline: as §2

[12] = tested on: ivy-leaved morning glory (Ipomoea hederacea); test: Test G Post-Emergence Protocol; details: Ipomoea, post-emergence, 312 h; for pest or weed control at 15.625 g/ha: 15.625 g ai/ha, evaluated after 13 days (100=total damage to plant; 0=no damage to plant), read-out: Morningglory, Ivy-leaved damage rating; for pest or weed control at 62.5 g/ha: 62.5 g ai/ha, read-out: Morningglory, Ivy-leaved damage rating (100=total damage to plant; 0=no damage to plant); for pest or weed control at 62.5 g/ha / pest or weed control at 250 g/ha: evaluated after 13 days; for pest or weed control at 250 g/ha: 250 g ai/ha, read-out: damage to plant, Morningglory, Ivy-leaved (100=total damage to plant; 0=no damage to plant)
Outline: as §2

| Structure (SMILES) | pest or weed control at 15.625 g/ha [1] [%] | pest or weed control at 62.5 g/ha [1] [%] | pest or weed control at 250 g/ha [1] [%] | pest or weed control at 15.625 g/ha [2] [%] | pest or weed control at 62.5 g/ha [2] [%] | pest or weed control at 250 g/ha [2] [%] | pest or weed control at 15.625 g/ha [3] [%] | pest or weed control at 62.5 g/ha [3] [%] | pest or weed control at 250 g/ha [3] [%] | pest or weed control at 15.625 g/ha [4] [%] | pest or weed control at 62.5 g/ha [4] [%] | pest or weed control at 250 g/ha [4] [%] | plant injury at 15.625 g/ha (corn (Zea mays) [5]) [%] | plant injury at 62.5 g/ha (corn (Zea mays) [5]) [%] | plant injury at 250 g/ha (corn (Zea mays) [5]) [%] | pest or weed control at 15.625 g/ha [6] [%] | pest or weed control at 62.5 g/ha [6] [%] | pest or weed control at 250 g/ha [6] [%] | pest or weed control at 15.625 g/ha [7] [%] | pest or weed control at 62.5 g/ha [7] [%] | further results |
| --- | --- | --- | --- | --- | --- | --- | --- | --- | --- | --- | --- | --- | --- | --- | --- | --- | --- | --- | --- | --- | --- |
| CN1C[C@H](c2ccc3c(c2)OCCO3)[C@@H](C(=O)Nc2cccc(F)c2F)C1=O (racemic) [Compound 1490] | 0 | 0 | 0 | 0 | 50 | 80 | 0 | 40 | 90 | 0 | 0 | 0 | 0 | 0 | 10 | 0 | 0 | 0 | 0 | 0 | pest or weed control at 250 g/ha [7]: 0%; pest or weed control at 15.625 g/ha [8]: 50%; pest or weed control at 62.5 g/ha [8]: 60%; pest or weed control at 250 g/ha [8]: 60%; pest or weed control at 15.625 g/ha [9]: 50%; pest or weed control at 62.5 g/ha [9]: 60%; pest or weed control at 250 g/ha [9]: 60%; pest or weed control at 15.625 g/ha [10]: 0%; pest or weed control at 62.5 g/ha [10]: 0%; pest or weed control at 250 g/ha [10]: 20%; plant injury at 15.625 g/ha (corn (Zea mays) [11]): 0%; plant injury at 62.5 g/ha (corn (Zea mays) [11]): 30%; plant injury at 250 g/ha (corn (Zea mays) [11]): 40%; pest or weed control at 15.625 g/ha [12]: 0%; pest or weed control at 62.5 g/ha [12]: 0%; pest or weed control at 250 g/ha [12]: 30% |
| Cc1nc(F)ccc1[C@@H]1CN(C)C(=O)[C@H]1C(=O)Nc1cccc(F)c1F (racemic) [Compound 1492] | 0 | 0 | 0 | 0 | 20 | 80 | 0 | 20 | 80 | 0 | 0 | 0 | 0 | 0 | 0 | 0 | 0 | 0 | 0 | 0 | pest or weed control at 250 g/ha [7]: 0%; pest or weed control at 15.625 g/ha [8]: 0%; pest or weed control at 62.5 g/ha [8]: 30%; pest or weed control at 250 g/ha [8]: 60%; pest or weed control at 15.625 g/ha [9]: 0%; pest or weed control at 62.5 g/ha [9]: 40%; pest or weed control at 250 g/ha [9]: 60%; pest or weed control at 15.625 g/ha [10]: 0%; pest or weed control at 62.5 g/ha [10]: 0%; pest or weed control at 250 g/ha [10]: 20%; plant injury at 15.625 g/ha (corn (Zea mays) [11]): 0%; plant injury at 62.5 g/ha (corn (Zea mays) [11]): 0%; plant injury at 250 g/ha (corn (Zea mays) [11]): 0%; pest or weed control at 15.625 g/ha [12]: 0%; pest or weed control at 62.5 g/ha [12]: 0%; pest or weed control at 250 g/ha [12]: 0% |
| Cc1cc([C@@H]2CN(C)C(=O)[C@H]2C(=O)Nc2cccc(F)c2F)cnc1Cl (racemic) [Compound 1493] | 0 | 0 | 0 | 40 | 90 | 90 | 60 | 80 | 90 | 0 | 0 | 0 | 0 | 0 | 70 | 0 | 0 | 10 | 0 | 0 | pest or weed control at 250 g/ha [7]: 0%; pest or weed control at 15.625 g/ha [8]: 40%; pest or weed control at 62.5 g/ha [8]: 70%; pest or weed control at 250 g/ha [8]: 80%; pest or weed control at 15.625 g/ha [9]: 40%; pest or weed control at 62.5 g/ha [9]: 60%; pest or weed control at 250 g/ha [9]: 60%; pest or weed control at 15.625 g/ha [10]: 0%; pest or weed control at 62.5 g/ha [10]: 0%; pest or weed control at 250 g/ha [10]: 0%; plant injury at 15.625 g/ha (corn (Zea mays) [11]): 10%; plant injury at 62.5 g/ha (corn (Zea mays) [11]): 40%; plant injury at 250 g/ha (corn (Zea mays) [11]): 80%; pest or weed control at 15.625 g/ha [12]: 0%; pest or weed control at 62.5 g/ha [12]: 0%; pest or weed control at 250 g/ha [12]: 0% |
